Data from US20250145609A1, “3-SUBSTITUTED PYRIDAZINE COMPOUNDS AS SMARCA2 AND/OR SMARCA4 DEGRADERS” (Aurigene Oncology Limited, priority 2022, published 2025).

Assays:
Type in all cases: cell-based
SMARCA2 = molecular target: T1, SMARCA2 (Homo sapiens, UniProt P51531); experiment: SMARCA2 degradation in VCaP cells by Western blot; conditions: at 100 nM, 16 hours
T1 construct: endogenous in cells; host or cells: VCaP (ATCC CRL-2876)
Procedure, shortened: (§1)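 VCaP cells in DMEM treated 16 h with compound at a single 100 nM dose (DMSO ≤0.3%). Lysates were probed by Western blot for SMARCA2 or SMARCA4, with beta-tubulin as loading control. Percent degradation was calculated from band signals.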

VCaP cells = experiment: Anti proliferative activity in VCaP cell line by CellTiter Glo assay; conditions: Homo sapiens, VCaP, 192 h, 8 days incubation, CellTiter Glo luminescence
Description: Example-P1: Determination of Anti Proliferative Activity of Compounds in Cell Lines VCaP by Cell Titer Glo©(Promega) Assay
VCaP (ATCC CRL-2876) cells were seeded in 96 well plate flat black clear bottom plates (Corning, Cat. No 3904) using complete DMEM Medium. Next day, compounds listed in the present invention were added to cells from 10 mM stocks made in DMSO (Sigma Cat no. D2650). Each concentration of compound was tested in triplicate with DMSO concentration at a final percentage not exceeding 0.3 in the cells. After the incubation of VCaP cells with compound for 8 days assay was terminated using 50 μl of CellTiter Glo© reagent (Promega, Cat. no G7572). CellTiter-Glo® Luminescent reagent determines the number of viable cells based on quantitation of ATP present which is an indicator of cell number and metabolic activity. Luminescence readings were taken in Victor-3 instrument. Percent inhibition of proliferation was calculated using formula, % inhibition=100−(luminescence value of test/luminescence value of DMSO control)*100. DMSO control (0%)=Cells in complete media with DMSO; blank=Media alone containing DMSO. EC50 was calculated using graph pad prism software.
Herein the group “A” refers to EC50 values lower than l0 nM, group “B” refers to EC50 values between l0 nM-100 nM (both inclusive) and group “C” refers to EC50 values greater than 100 nM.

SMARCA4 = molecular target: T2, SMARCA4 (Homo sapiens, UniProt P51532); experiment: SMARCA4 degradation in VCaP cells by Western blot; conditions: VCaP, 16 h, at 100 nM
T2 construct: endogenous in cells; host or cells: VCaP (ATCC CRL-2876)
T2 sequence (P51532 whole entry): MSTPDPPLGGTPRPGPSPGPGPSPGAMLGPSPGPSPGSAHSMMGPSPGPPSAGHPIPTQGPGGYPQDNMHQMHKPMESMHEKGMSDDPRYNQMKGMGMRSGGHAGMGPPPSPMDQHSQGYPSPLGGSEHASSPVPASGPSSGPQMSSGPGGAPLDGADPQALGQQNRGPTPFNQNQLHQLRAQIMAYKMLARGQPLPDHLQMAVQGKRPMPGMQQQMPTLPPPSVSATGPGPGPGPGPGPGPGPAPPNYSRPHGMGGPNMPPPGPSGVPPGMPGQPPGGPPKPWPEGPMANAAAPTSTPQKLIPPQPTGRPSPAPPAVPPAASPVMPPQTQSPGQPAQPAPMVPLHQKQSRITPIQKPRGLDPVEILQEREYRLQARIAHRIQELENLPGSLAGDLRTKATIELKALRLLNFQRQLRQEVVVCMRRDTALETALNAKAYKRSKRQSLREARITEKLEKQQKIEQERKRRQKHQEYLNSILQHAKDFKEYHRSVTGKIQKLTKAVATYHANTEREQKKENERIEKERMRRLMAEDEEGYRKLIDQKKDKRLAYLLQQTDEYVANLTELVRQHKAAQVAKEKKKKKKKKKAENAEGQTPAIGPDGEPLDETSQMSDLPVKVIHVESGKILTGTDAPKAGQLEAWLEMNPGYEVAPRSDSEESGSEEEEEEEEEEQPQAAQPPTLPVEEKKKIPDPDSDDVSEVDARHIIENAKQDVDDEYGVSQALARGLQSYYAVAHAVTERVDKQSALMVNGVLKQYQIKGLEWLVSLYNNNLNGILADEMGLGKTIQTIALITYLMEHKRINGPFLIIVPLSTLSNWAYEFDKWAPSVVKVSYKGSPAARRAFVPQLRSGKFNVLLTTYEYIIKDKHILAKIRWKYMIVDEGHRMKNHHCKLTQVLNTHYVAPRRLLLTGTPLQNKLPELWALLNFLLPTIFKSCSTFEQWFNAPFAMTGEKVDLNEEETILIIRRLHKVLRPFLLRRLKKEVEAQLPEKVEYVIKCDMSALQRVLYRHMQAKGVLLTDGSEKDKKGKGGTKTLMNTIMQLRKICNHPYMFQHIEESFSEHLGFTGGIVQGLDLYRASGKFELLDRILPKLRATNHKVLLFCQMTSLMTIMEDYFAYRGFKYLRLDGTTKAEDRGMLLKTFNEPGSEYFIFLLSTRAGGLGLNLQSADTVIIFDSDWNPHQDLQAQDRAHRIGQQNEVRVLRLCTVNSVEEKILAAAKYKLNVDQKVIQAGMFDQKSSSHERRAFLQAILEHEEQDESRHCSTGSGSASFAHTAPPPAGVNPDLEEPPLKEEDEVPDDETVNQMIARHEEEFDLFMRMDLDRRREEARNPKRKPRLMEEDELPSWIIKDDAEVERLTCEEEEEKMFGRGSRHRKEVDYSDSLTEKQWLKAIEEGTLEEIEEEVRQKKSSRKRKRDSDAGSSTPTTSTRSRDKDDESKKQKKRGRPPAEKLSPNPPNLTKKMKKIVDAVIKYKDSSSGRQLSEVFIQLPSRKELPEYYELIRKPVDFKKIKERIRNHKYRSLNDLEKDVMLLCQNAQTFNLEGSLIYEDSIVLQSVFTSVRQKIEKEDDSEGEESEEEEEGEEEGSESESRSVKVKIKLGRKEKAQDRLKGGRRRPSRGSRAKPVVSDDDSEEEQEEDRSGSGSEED
Procedure, shortened: as §1

T1 sequence (P51531 whole entry): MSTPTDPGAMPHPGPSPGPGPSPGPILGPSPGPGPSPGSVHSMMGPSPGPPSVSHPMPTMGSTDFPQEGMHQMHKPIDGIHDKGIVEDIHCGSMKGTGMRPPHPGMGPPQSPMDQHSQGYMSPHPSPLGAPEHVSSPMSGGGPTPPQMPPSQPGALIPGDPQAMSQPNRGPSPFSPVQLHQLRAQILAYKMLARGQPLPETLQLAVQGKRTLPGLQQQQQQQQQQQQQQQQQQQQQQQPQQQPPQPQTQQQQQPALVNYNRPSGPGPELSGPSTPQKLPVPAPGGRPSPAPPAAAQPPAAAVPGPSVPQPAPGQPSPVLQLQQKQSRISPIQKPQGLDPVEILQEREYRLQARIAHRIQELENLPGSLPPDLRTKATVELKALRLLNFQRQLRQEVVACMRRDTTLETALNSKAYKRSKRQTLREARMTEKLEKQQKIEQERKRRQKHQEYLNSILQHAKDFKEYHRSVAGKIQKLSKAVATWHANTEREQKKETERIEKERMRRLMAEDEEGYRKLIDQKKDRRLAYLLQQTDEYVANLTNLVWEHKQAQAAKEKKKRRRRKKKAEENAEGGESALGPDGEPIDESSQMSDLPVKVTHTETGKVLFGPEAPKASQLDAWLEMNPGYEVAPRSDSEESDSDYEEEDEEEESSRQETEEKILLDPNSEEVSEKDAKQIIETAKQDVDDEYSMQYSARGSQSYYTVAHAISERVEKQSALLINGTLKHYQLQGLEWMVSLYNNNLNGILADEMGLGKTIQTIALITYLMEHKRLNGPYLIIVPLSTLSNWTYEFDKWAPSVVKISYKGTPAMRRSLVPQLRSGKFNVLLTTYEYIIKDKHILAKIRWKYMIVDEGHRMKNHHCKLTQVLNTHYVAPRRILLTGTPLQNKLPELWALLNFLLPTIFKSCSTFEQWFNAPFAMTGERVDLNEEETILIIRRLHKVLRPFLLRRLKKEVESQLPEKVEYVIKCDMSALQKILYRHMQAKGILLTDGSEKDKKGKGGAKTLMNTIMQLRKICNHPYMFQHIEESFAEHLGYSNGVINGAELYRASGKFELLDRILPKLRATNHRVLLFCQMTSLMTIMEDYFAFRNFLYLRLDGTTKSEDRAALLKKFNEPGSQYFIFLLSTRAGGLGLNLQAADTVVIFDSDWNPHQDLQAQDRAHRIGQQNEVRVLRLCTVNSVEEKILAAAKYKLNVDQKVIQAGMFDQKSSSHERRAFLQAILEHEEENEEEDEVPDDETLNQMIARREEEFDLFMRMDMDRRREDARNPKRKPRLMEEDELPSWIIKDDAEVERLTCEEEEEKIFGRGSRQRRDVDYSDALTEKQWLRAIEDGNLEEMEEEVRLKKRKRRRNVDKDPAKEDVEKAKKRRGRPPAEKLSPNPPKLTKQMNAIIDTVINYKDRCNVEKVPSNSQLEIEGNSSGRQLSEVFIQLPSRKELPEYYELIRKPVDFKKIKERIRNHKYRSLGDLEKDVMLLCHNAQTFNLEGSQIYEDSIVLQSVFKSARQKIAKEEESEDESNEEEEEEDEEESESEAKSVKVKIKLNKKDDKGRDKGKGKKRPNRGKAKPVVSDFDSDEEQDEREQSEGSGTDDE

| Structure (SMILES) | Percent degradation SMARCA2 (SMARCA2) [%] | EC50 (VCaP cells) [nM] | Percent SMARCA4 degradation at 0.1 µM (SMARCA4) [%] |
| --- | --- | --- | --- |
| Cc1ncsc1-c1ccc([C@H](C)NC(=O)[C@@H]2C[C@@H](O)CN2C(=O)[C@@H](NC(=O)Cn2ccc(-c3ccc(-c4cc(-c5ccccc5O)nnc4N)cc3)c2)C(C)(C)C)cc1 [Compound 50, (2S,4R)-1-((S)-2-(2-(3-(4-(3-amino-6-(2-hydroxyphenyl)pyridazin-4-yl)phenyl)-1H-pyrrol-1-yl)acetamido)-3,3-dimethylbutanoyl)-4-hydroxy-N-((S)-1-(4-(4-methylthiazol-5-yl)phenyl)ethyl)pyrrolidine-2-carboxamide] | 85 | > 100 | 0 |
| Cc1ncsc1-c1ccc([C@H](C)NC(=O)[C@@H]2C[C@@H](O)CN2C(=O)[C@@H](NC(=O)CN2CC(c3ccc(-c4cc(-c5ccccc5O)nnc4N)cc3)C2)C(C)(C)C)cc1 [Compound 52, (2S,4R)-1-((S)-2-(2-(3-(4-(3-amino-6-(2-hydroxyphenyl)pyridazin-4-yl)phenyl)azetidin-1-yl)acetamido)-3,3-dimethylbutanoyl)-4-hydroxy-N-((S)-1-(4-(4-methylthiazol-5-yl)phenyl)ethyl)pyrrolidine-2-carboxamide] | 97 | > 100 | 70 |

The next lines start with the values.

| Percent degradation SMARCA2 (SMARCA2) [%] | EC50 (VCaP cells) [nM] | Percent SMARCA4 degradation at 0.1 µM (SMARCA4) [%] | Structure (SMILES) |
| --- | --- | --- | --- |
| 98 | < 10 | 54 | Cc1ncsc1-c1ccc([C@H](C)NC(=O)[C@@H]2C[C@@H](O)CN2C(=O)[C@@H](NC(=O)CN2CCN(c3ccc(-c4cc(-c5ccccc5O)nnc4N)cc3)CC2)C(C)(C)C)cc1 [Compound 12, (2S,4R)-1-((S)-2-(2-(4-(4-(3-amino-6-(2-hydroxyphenyl)pyridazin-4-yl)phenyl)piperazin-1-yl)acetamido)-3,3-dimethylbutanoyl)-4-hydroxy-N—((S)-1-(4-(4-methylthiazol-5-yl)phenyl)ethyl)pyrrolidine-2-carboxamide] |
| 100 | 10 to 100 | 85 | Cc1ncsc1-c1ccc([C@H](C)NC(=O)[C@@H]2C[C@@H](O)CN2C(=O)[C@@H](c2cc(-c3ccc(-c4cc(-c5ccccc5O)nnc4N)cc3)no2)C(C)C)cc1 [Compound 6, (2S,4R)-1-((R)-2-(3-(4-(3-amino-6-(2-hydroxyphenyl)pyridazin-4-yl)phenyl)isoxazol-5-yl)-3-methylbutanoyl)-4-hydroxy-N—((S)-1-(4-(4-methylthiazol-5-yl)phenyl)ethyl)pyrrolidine-2-carboxamide] |
| 97 | < 10 | 92 | Cc1ncsc1-c1ccc([C@H](C)NC(=O)[C@@H]2C[C@@H](O)CN2C(=O)[C@@H](NC(=O)CN2CCN(c3ccc(-c4cc(-c5ccccc5O)nnc4N)cn3)CC2)C(C)(C)C)cc1 [Compound 25, (2S,4R)-1-((S)-2-(2-(4-(5-(3-amino-6-(2-hydroxyphenyl)pyridazin-4-yl)pyridin-2-yl)piperazin-1-yl)acetamido)-3,3-dimethylbutanoyl)-4-hydroxy-N—((S)-1-(4-(4-methylthiazol-5-yl)phenyl)ethyl)pyrrolidine-2-carboxamide] |
